According to patent publication US20200054646A1, “USE OF PHENOTHIAZINE DERIVATIVE IN THE TREATMENT OF INFECTIOUS PURPURA OR PURPURA FULMINANS” (priority 2016, published 2020):

Legend:
[1] = system: N. meningitidis 2C4.3 bacterial aggregates; assay: microbe, parasite or virus in culture; type: cell-based, Neisseria meningitidis; conditions: for EC80: Neisseria meningitidis, 0.5 h, read-out: Concentration promoting efficient meningococcal dispersal (~80%); for effect on dispersion of meningococcal aggregates (in words): 0.5 to 80 μM, 30 min; for Concentration promoting efficient meningococcal dispersal (~80%): 30 min treatment, 0.5 to 80 μM tested
Description: N. meningitidis 2C4.3 was grown in liquid culture at 10^7 CFU/ml for 2 h to form bacterial aggregates and were treated with increasing concentrations of Trifluoperazine (10 to 40 μM), Gentamicin (150 μg/ml) or cefotaxim (20 μg/ml) for 20 minutes and bacterial aggregates were immediately visualized using a phase-contrast microscope. […] (B) Quantification of the bacterial aggregation was performed using Image J software.
N. meningitidis 2C4.3 wild type strain and the isogenic derivative mutant PilT ([…]PilT) were grown in liquid culture at 10^7 CFU/ml for 2 h to form bacterial aggregates and then treated with 50 μM Trifluoperazine. Time lapse phase-contrast video microscopy was performed to visualize the effect on bacterial aggregates over time. Images were taken at the indicated time points of the video.
N. meningitidis 2C4.3 was grown in liquid culture at 10^7 CFU/ml for 2 h to form bacterial aggregates and were treated with 30 μM Trifluoperazine for 30 minutes to induce bacterial dispersion or PBS as a control. The medium was replaced to remove the Trifluoperazine and the reformation of bacterial aggregates were visualized overtime using a phase-contrast microscope.
FIG. 7. […] Bacteria were grown in suspension for 2 h then Phenothiazine derivatives were added at the indicated concentrations.
N. meninigitidis 2C4.3 strain was grown in suspension in wells of a 24 well plate, containing 1 ml of DMEM medium supplemented with 10% heat-inactivated fetal calf serum. After 2 h of growth, Trifluoperazine (or control vehicle) was added at various concentrations ranging from 10 to 40 μM for 20 min and the bacterial aggregates were visualized over time using a phase-contrast microscope.
N. meninigitidis 2C4.3 strain was grown in suspension in wells of a 24 well plate, containing 1 ml of DMEM medium supplemented with 10% heat-inactivated fetal calf serum. After 2 h of growth, various concentrations (0.5 to 80 μM) of phenothiazine-derivative compounds or control vehicle (PBS or DMSO) were added to the wells for 30 min and the bacterial aggregates were visualized using a phase-contrast microscope.
Were tested phenothiazine-derivative compounds of: • the Piperazine group: Trifluoperazine (Sigma #T8516), Fluphenazine (Sigma #F4765), Prochlorperazine (Sigma #P9178) Perphenazine (Sigma #P6402); • the Piperidine group: Thioridazine (Sigma #T9025) and Mesoridazin (Sigma #M4068); • the Aliphatic group: Chlorpromazine (Sigma #C8138), Promazine (Sigma #P6656), Triflupromazine (Sigma #1686003) and levomepromazine (Sigma #L0500000).

[2] = system: meningococcal colonization of the human dermal vasculature; assay: In vivo infection of mice engrafted with human skin; conditions: cefotaxime treatment
[3] = system: Nm2C4.3 microcolonies on HBMEC; assay: Dispersion of meningococcal microcolonies at the surface of infected human endothelial cells; type: cell-based, Neisseria meningitidis; conditions: Cefotaxim 20 μg/ml
Description: Human […] microvascular endothelial cells (HBMEC) were infected with Nm2C4.3 for 1 h 30, treated with Trifluoperazine (10-40 μM) for 30 minutes, before fixation and immunofluorescence analysis using anti-Nm2C4.3 antibody and Alexa Fluor 633 Phalloidin. (A) Representative fluorescence microscopy showing bacterial colony (white dots) formed at the surface of the endothelial cells. (B) Quantification of the bacterial colonization was performed using Image J software.
HBMEC, a human endothelial cell line isolated from bone marrow capillaries (Schweitzer et al., 1997) were grown in Dulbecco's Modified Eagle Medium (DMEM) 4.5 g/L-Glutamax (ThermoFischer) 10% FBS. Cells were grown on Thermanox coverslips coated with gelatin 2% (BD Difco #214340) for 2 days to reach confluency. Cells were then infected with a suspension of Nm2C4.3 (˜10^7 CFU/ml) in DMEM/FBS during 30 minutes to allow bacterial adhesion. Cells were then washed three times with medium to remove non-adherent bacteria and infection was pursued for 1 h 30: adherent bacteria grew at the endothelial cell surface and formed micro-colonies. Trifluoperazine was then added to obtain final concentrations of 10, 20, 30 and 40 μM. After incubation for 30 minutes, cells were washed and fixed in 4% Paraformaldehyde for 10 min, washed three times with PBS, and permeabilized with 0.1% Triton X-100 in PBS for 10 min. Cells were blocked for 30 min with 3% BSA in PBS and were incubated for 2 h with the primary antibodies (Rabbit polyclonal anti-Nm2C4.3 strain, kindly provided by Dr X. Nassif, INEM, Paris). After three washes with PBS, cells were incubated for 1 h with […] anti-rabbit IgG (Jackson ImmunoResearch Laboratories), together with Alexa Fluor 633 Phalloidin (Thermofischer) and DAPI (0.5 mg ml-1, Sigma Aldrich) to stain Actin and nuclei, respectively. Labelled preparations were mounted in Glycergel media (DAKO) and image acquisitions were performed with a DM16000 microscope (Leica, X40). Quantification was done with ImageJ software (NIH). Results are presented as a vascular colonisation index corresponding to the area occupied by the fluorescently labelled bacteria per fields in relation to the area occupied by the fluorescently labelled human endothelial cells (Actin staining). Statistical analysis were performed with Student t test.

Row | Compound | EC80 [1] | effect on dispersion of meningococcal aggregates (in words) [1] | Concentration promoting efficient meningococcal dispersal (~80%) [1] | further results
1 | OCCN1CCN(CCCN2c3ccccc3Sc3ccc(Cl)cc32)CC1 [Perphenazine] | 40 µM |  |  | 
2 | CN(C)CCCN1c2ccccc2Sc2ccc(C(F)(F)F)cc21 [Triflupromazine] |  | no effects | No effect | 
3 | OCCN1CCN(CCCN2c3ccccc3Sc3ccc(C(F)(F)F)cc32)CC1 [Fluphenazine] | 40 µM |  |  | 
4 | CN(C)CCCN1c2ccccc2Sc2ccc(Cl)cc21 [Chlorpromazine] |  | no effects | No effect | 
5 | COc1ccc2c(c1)N(C[C@H](C)CN(C)C)c1ccccc1S2 [Levomepromazine] |  | no effects | No effect | 
6 | CN1CCCCC1CCN1c2ccccc2Sc2ccc([S+](C)[O-])cc21 (stereo not shown) [Mesoridazine] | 6 µM |  |  | 
7 | CN1CCN(CCCN2c3ccccc3Sc3ccc(Cl)cc32)CC1 [Prochlorperazine] | 30 µM |  |  | 
8 | CSc1ccc2c(c1)N(CCC1CCCCN1C)c1ccccc1S2 (stereo not shown) [Thioridazine] | 4 µM |  |  | 
9 | CO/N=C(\C(=O)N[C@@H]1C(=O)N2C(C(=O)O)=C(COC(C)=O)CS[C@H]12)c1csc(N)n1 [Cefotaxim] |  |  |  | dispersion of bacterial aggregates formed in suspension ([1]; Cefotaxim 20 μg/ml, 20 minutes): did not significantly induce the dispersion; increase of inflammatory response [2]: 2 fold; dispersion of microcolonies at the endothelial cell surface [3]: poorly induced the dispersion
10 | CN(C)CCCN1c2ccccc2Sc2ccccc21 [Promazine] | 10 µM | inhibited bacterial aggregation with better efficacy than Trifluoperazine |  | 
